Laboratory results: PMC8036738, “Evaluation of Selective COX-2 Inhibition and In Silico Study of Kuwanon Derivatives Isolated from Morus alba” (International Journal of Molecular Sciences, 2021)
Like-named read-outs stand apart in the source and are kept apart here.

What was measured:
Type in all cases: biochemical, ovine
COX-1 = molecular target: T1, COX-1 (Ovis aries, UniProt P05979); assay: in vitro COX-1 enzyme inhibition assay (fluorometric inhibitor screening kit)
T1 construct: purchased BioVision
T1 sequence (P05979 25-600): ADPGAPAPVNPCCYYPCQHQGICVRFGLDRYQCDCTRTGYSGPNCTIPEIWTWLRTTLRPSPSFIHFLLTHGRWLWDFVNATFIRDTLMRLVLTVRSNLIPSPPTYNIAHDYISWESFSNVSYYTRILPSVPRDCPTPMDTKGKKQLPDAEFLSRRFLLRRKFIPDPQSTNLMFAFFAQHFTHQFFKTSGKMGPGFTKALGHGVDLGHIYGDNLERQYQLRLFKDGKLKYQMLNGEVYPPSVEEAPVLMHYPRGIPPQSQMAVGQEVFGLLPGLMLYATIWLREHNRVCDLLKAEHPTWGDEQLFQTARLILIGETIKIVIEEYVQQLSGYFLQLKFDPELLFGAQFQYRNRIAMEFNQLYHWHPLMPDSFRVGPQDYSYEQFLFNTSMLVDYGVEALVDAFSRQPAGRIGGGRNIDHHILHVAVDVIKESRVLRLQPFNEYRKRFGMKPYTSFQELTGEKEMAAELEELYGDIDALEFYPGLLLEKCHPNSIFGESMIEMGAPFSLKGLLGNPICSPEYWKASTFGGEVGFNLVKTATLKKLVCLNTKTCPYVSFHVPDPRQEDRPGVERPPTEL
Experimental: (§1) Dimethyl sulfoxide (DMSO) and COX-1/2 Inhibitor Screening Kit (BioVison, California, CA, USA) were used according to the manufacturer’s instructions. All other reagents used were of the highest purity commercially available. All samples were dissolved in DMSO at a concentration of 100 mM.
(§2) The ability of the test compounds to inhibit COX-1 and COX-2 isoenzymes in vitro was determined using a Biovision fluorometric COX-1/-2 inhibitor screening assay kit. Briefly, the COX assay buffer (75 μL), COX cofactor working solution (2 μL), COX probe solution (1 μL), recombinant COX-1 or COX-2 (1 μL), arachidonic acid/NaOH solution (10 μL), and test solution (10 μL) were mixed in a 96-well plate, and the fluorescence kinetics were measured for 10 min at 25 °C. […] Fluorescence was measured using a microplate spectrophotometer (Bio-Tek, Winooski, VT, USA). Two points (T1 and T2) in the linear range of the plot were used to obtain the corresponding fluorescence values (RFU1 and RFU2). Then, the slope for all samples (S) was calculated by dividing the net ΔRFU (RFU2 − RFU1) values by the time ΔT (T2 − T1) using the following equation: Relative inhibition (%) = ((slope of the enzyme control − slope of S)/(slope of the enzyme control)) × 100.
(§3) The samples were evaluated in triplicates at five different concentrations.

COX-2 [1] = assay: in vitro COX-2 enzyme inhibition assay (fluorometric inhibitor screening kit)
Experimental: as §1, §2, §3

COX-2 [2] = molecular target: T2, COX-2 (Homo sapiens, UniProt P35354); assay: as above
T2 sequence (P35354 18-604): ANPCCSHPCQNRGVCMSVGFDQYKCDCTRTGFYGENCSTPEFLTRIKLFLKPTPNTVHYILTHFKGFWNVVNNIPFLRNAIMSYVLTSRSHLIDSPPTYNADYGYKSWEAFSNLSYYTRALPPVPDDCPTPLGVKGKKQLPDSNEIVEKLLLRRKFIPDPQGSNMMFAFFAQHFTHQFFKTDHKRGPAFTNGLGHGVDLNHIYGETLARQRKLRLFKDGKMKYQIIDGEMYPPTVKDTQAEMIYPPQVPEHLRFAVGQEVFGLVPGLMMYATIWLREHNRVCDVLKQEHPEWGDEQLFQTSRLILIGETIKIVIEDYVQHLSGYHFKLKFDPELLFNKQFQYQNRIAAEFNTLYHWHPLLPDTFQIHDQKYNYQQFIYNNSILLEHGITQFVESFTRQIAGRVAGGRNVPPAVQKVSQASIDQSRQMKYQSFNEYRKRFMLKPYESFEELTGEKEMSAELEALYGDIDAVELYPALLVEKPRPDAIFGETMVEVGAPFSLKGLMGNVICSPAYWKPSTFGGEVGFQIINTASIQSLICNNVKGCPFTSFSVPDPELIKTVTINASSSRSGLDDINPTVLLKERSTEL
Experimental: as §1, §2, §3

[3] = triplicates at five concentrations, read-out: IC50 COX-1

Compound | IC50 (COX-1; [3]) | SI (selectivity index, COX-1 IC50/COX-2 IC50) (COX-2 [1]) | IC50 (COX-1) | COX-2 inhibition activity (in words) (COX-2 [2])
CC(C)=CCc1c(-c2ccc(O)c3c2OC(C)(C)C=C3)oc2cc(O)cc(O)c2c1=O [Kuwanon A, kuwanon A] | > 100 µM | >7.1 |  | 
CC(C)=CCc1c(-c2ccc3c(c2O)C=CC(C)(C)O3)oc2cc(O)cc(O)c2c1=O [Kuwanon B, kuwanon B] | 36 µM | 1.3 |  | 
CC(C)=CCc1c(-c2ccc(O)cc2O)oc2c(CC=C(C)C)c(O)cc(O)c2c1=O [Kuwanon C, kuwanon C] |  |  | 67 µM | 
CC(C)=CCC/C(C)=C/Cc1cc(C2CC(=O)c3c(O)cc(O)cc3O2)c(O)cc1O (stereo not shown) [Kuwanon E, kuwanon E] | 46 µM | 1.4 |  | 
CC(C)=CCc1c(-c2ccc(O)cc2O)oc2c(C3C=C(C)CC(c4ccc(O)cc4O)C3C(=O)c3ccc(O)cc3O)c(O)cc(O)c2c1=O (stereo not shown) [Kuwanon G, kuwanon G] | > 100 µM |  |  | no COX-2 inhibition activity
CC(C)=CCc1c(O)ccc(C(=O)C2C(c3c(O)cc(O)c4c(=O)c(CC=C(C)C)c(-c5ccc(O)cc5O)oc34)C=C(C)CC2c2ccc(O)cc2O)c1O (stereo not shown) [Kuwanon H, kuwanon H] | 37 µM |  |  | 
